{
  "source": "the supplement of paper PMC5580409",
  "data": [
    {"tested_on": "Plasmodium falciparum 3D7", "assay": "pEC50, asexual blood-stage growth inhibition", "details": "72 h", "procedure": "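Held-out test set measured in the Guy lab in 2014 with the same procedure as the primary St. Jude screen. P. falciparum 3D7 blood-stage culture (2% hematocrit, 1% parasitemia) was treated with compound for 72 h at 37 °C, and growth was read by SYBR Green I fluorescence. EC50 came from a four-parameter Hill fit over a 10-point dilution series […].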", "values": [
      {"compound": "Cc1cccc(Oc2c(C(F)(F)F)oc3c(CN4CCC(C)CC4)c(O)ccc3c2=O)c1", "pEC50": "< 4.82"},
      {"compound": "OC(CNC1CC1)Cn1c2ccccc2c2ccccc21", "note": "(centres undefined)", "pEC50": "< 4.82"},
      {"compound": "Cc1ccc2[nH]c(-c3ccc(NC(=O)c4ccc(C)c(C)c4)cc3)nc2c1", "pEC50": 5.44},
      {"compound": "COc1ccc(Oc2c(C(F)(F)F)oc3c(CN4CCCC(C)C4)c(O)ccc3c2=O)cc1", "note": "(centres undefined)", "pEC50": "< 4.82"},
      {"compound": "O=C(Cc1ccccc1)Nc1ccc(-c2nc3cc(-c4nc5cc(NC(=O)Cc6ccccc6)ccc5[nH]4)ccc3[nH]2)cc1", "pEC50": "< 4.82"},
      {"compound": "COc1ccc(CN2CCCn3c4c(c5cc(C)ccc53)CCCC42)c(OC)c1", "note": "(centres undefined)", "pEC50": "< 4.82"},
      {"compound": "COc1ccccc1-c1c(C(F)(F)F)oc2c(CN3CCC(C)CC3)c(O)ccc2c1=O", "pEC50": "< 4.82"},
      {"compound": "COc1cc(C2CC(=O)NC3=C2C(=O)CC(c2ccc(C)cc2)C3)ccc1O", "note": "(centres undefined)", "pEC50": "< 4.82"},
      {"compound": "CCN(CC)c1nc(Nc2cccc(Br)c2)nc(Nc2cc(C)ccc2C)n1", "pEC50": "< 4.82"},
      {"compound": "Oc1nc(/C=C/c2cccc3ccccc23)nc2ccccc12", "pEC50": "< 4.82"},
      {"compound": "O=C(NC1CCN(Cc2ccccc2)CC1)c1cc(-c2ccncc2)nc2ccc(Cl)cc12", "pEC50": 5.54},
      {"compound": "CC(C)(C)C(=O)N1CCN(C(c2ccccc2)c2ccccc2)CC1", "pEC50": "< 4.82"},
      {"compound": "Cc1cc(Cl)ccc1OCC(O)CNC1CCCC1", "note": "(centres undefined)", "pEC50": 5.18},
      {"compound": "Cc1ccccc1NCC(O)Cn1c2ccc(Cl)cc2c2cc(Cl)ccc21", "note": "(centres undefined)", "pEC50": 5.44},
      {"compound": "CC(C)c1ccc(/C=C/C(=O)Nc2cccc(F)c2)cc1", "pEC50": "< 4.82"},
      {"compound": "COc1ccc(CNC2CCCCC2)cc1OCC(O)CN(C)Cc1ccccc1", "note": "(centres undefined)", "pEC50": "< 4.82"},
      {"compound": "CN1CCN(Cc2c(O)ccc3c(=O)c(Oc4ccc5ccccc5c4)c(C(F)(F)F)oc23)CC1", "pEC50": "< 4.82"},
      {"compound": "C=CCn1nnnc1NCc1cc(Cl)c(OC)c(OC)c1", "pEC50": "< 4.82"},
      {"compound": "OCCC1CN(Cc2cc(Cl)ccc2O)CCN1C1CCCCC1", "note": "(centres undefined)", "pEC50": "< 4.82"},
      {"compound": "CCc1cccc(NC(=O)/C=C/c2ccccc2Cl)c1", "pEC50": 5.36},
      {"compound": "O=C(Nc1cc(Cl)ccc1O)c1cnn2c1NC(c1ccc(Br)cc1)CC2C(F)(F)F", "note": "(centres undefined)", "pEC50": "< 4.82"},
      {"compound": "CN(C)c1nc(N(C#N)CCOc2ccccc2)nc(N2CCOCC2)n1", "pEC50": "< 4.82"},
      {"compound": "CCOc1ccc(C(O)Cn2c(=N)n(CCN3CCCCC3)c3ccccc32)cc1", "note": "(centres undefined)", "pEC50": "< 4.82"},
      {"compound": "CCCCn1c(=N)n(CC(O)c2ccc(OC)cc2)c2ccccc21", "note": "(centres undefined)", "pEC50": "< 4.82"},
      {"compound": "COc1cc(OC)c([N+](=O)[O-])cc1/C=N/NC(=O)C1CC1(c1ccccc1)c1ccccc1", "note": "(centres undefined)", "pEC50": "< 4.82"},
      {"compound": "CCCCN(CCCC)CC(O)COc1ccccc1[N+](=O)[O-]", "note": "(centres undefined)", "pEC50": 7.13},
      {"compound": "CCCCn1nnnc1NCc1ccc(OC)c(OC)c1OC", "pEC50": 6.32},
      {"compound": "CC1=C(C(=O)OCCOc2ccccc2)C(c2cccc(O)c2)C2=C(CC(c3ccc(Cl)cc3)CC2=O)N1", "note": "(centres undefined)", "pEC50": "< 4.82"},
      {"compound": "O=C(CC1C(=O)N(c2cccc(F)c2)C(=O)N1CCc1ccccc1F)Nc1cccc(F)c1", "note": "(centres undefined)", "pEC50": "< 4.82"},
      {"compound": "OC(CNCc1cccc(Cl)c1)c1ccccc1", "note": "(centres undefined)", "pEC50": "< 4.82"},
      {"compound": "CCCCn1c(=N)n(CC(O)COc2ccc(Cl)cc2)c2ccccc21", "note": "(centres undefined)", "pEC50": "< 4.82"},
      {"compound": "Cc1ccc2c(c1)c1c3n2CCCN(Cc2ccc(C(C)C)cc2)C3CCC1", "note": "(centres undefined)", "pEC50": "< 4.82"},
      {"compound": "CN(C)CCCn1c(=N)n(CC(O)c2ccc(Br)cc2)c2ccccc21", "note": "(centres undefined)", "pEC50": 5.54},
      {"compound": "C=CCn1c(=O)/c(=C/C=C2\\C=CN(CC)c3ccccc32)s/c1=C\\c1sc(-c2ccccc2)c(-c2ccccc2)[n+]1CC", "pEC50": 5.37},
      {"compound": "CCOC(=O)c1ccc(NC(=O)/C=C/c2ccccc2Cl)cc1", "pEC50": "< 4.82"},
      {"compound": "CC1CCC(C(C)C)C(OCC(O)CNC2CCCC2)C1", "note": "(centres undefined)", "pEC50": 5.46},
      {"compound": "Cc1ccc(C(=O)Cn2c(=N)n(CCN3CCCCC3)c3ccccc32)cc1", "pEC50": "< 4.82"},
      {"compound": "O=S(=O)(/C=C/c1ccccc1)N1CCC(CO)(Cc2cccc(C(F)(F)F)c2)CC1", "pEC50": "< 4.82"},
      {"compound": "O=c1c(Oc2ccc3ccccc3c2)c(C(F)(F)F)oc2c(CN3CCCC3)c(O)ccc12", "pEC50": 5.27},
      {"compound": "CCN(CC)CCN1C(=O)c2ccccc2NC1c1ccc(Cl)cc1Cl", "note": "(centres undefined)", "pEC50": "< 4.82"},
      {"compound": "CC(C)CCn1cc(C(=O)NC(C)(C)C)c(=O)c(C(=O)N2CCN(C/C=C/c3ccccc3)CC2)c1", "pEC50": "< 4.82"},
      {"compound": "COc1ccc(CN2CCCn3c4c(c5cc(C)ccc53)CCCC42)cc1", "note": "(centres undefined)", "pEC50": "< 4.82"},
      {"compound": "CCCCn1c(=N)n(CC(=O)c2ccc(Cl)cc2)c2ccccc21", "pEC50": "< 4.82"},
      {"compound": "CCC(C(=O)Nc1cccc(-c2nc3ccccc3[nH]2)c1)c1ccccc1", "note": "(centres undefined)", "pEC50": "< 4.82"},
      {"compound": "OC(CN1CCN(Cc2ccccc2)CC1)Cn1c2ccc(Cl)cc2c2cc(Cl)ccc21", "note": "(centres undefined)", "pEC50": "< 4.82"},
      {"compound": "Cc1cccc(NCC(O)Cn2c3ccccc3c3ccccc32)c1C", "note": "(centres undefined)", "pEC50": "< 4.82"},
      {"compound": "CCn1c(CSCc2ccc(F)cc2)nnc1SCC(=O)Nc1cc(C(F)(F)F)ccc1Cl", "pEC50": "< 4.82"},
      {"compound": "Cc1cc(Nc2ccccc2C(F)(F)F)nc(-n2nc(C)cc2C)n1", "pEC50": "< 4.82"},
      {"compound": "CCOc1cc(C2C(C(=O)OC(C)CC)=C(C)NC3=C2C(=O)CC(c2ccc(Cl)cc2)C3)ccc1O", "note": "(centres undefined)", "pEC50": "< 4.82"},
      {"compound": "CCC(C(=O)Nc1ccc(-c2nc3ccccc3[nH]2)cc1)c1ccccc1", "note": "(centres undefined)", "pEC50": "< 4.82"},
      {"compound": "COc1ccccc1-c1c(C(F)(F)F)oc2c(CN3CCOCC3)c(O)ccc2c1=O", "pEC50": "< 4.82"},
      {"compound": "Oc1ccc(Br)cc1CN1CCN(CC2CC3C=CC2C3)CC1", "note": "(centres undefined)", "pEC50": 5.39},
      {"compound": "CCOc1ccc(-c2nonc2NC(=O)c2ccco2)cc1", "pEC50": 6.71},
      {"compound": "COc1ccc(OC)c(C2CC(=O)NC3=C2C(=O)CC(c2ccc(OC)c(OC)c2)C3)c1", "note": "(centres undefined)", "pEC50": "< 4.82"},
      {"compound": "CCOC(=O)c1cccc(NC(=O)CC2C(=O)N(c3ccc(F)cc3)C(=O)N2Cc2ccccn2)c1", "note": "(centres undefined)", "pEC50": "< 4.82"},
      {"compound": "OC(CNCCc1ccccc1)c1ccccc1", "note": "(centres undefined)", "pEC50": 5.05},
      {"compound": "N=c1n(CCN2CCCCC2)c2ccccc2n1CC(O)c1cccc2ccccc12", "note": "(centres undefined)", "pEC50": 5.49},
      {"compound": "O=C(Cc1cccc2ccccc12)Nc1ccc(-c2nc3ccccc3[nH]2)cc1", "pEC50": 5.57},
      {"compound": "Cc1ccc(C)c(OCC(O)CNC2CCCC2)c1", "note": "(centres undefined)", "pEC50": "< 4.82"},
      {"compound": "OC(CNCc1ccccc1)Cn1c2ccc(Cl)cc2c2cc(Cl)ccc21", "note": "(centres undefined)", "pEC50": 5.73},
      {"compound": "CCOC(=O)c1c(C)oc2cc(CN(C)C)c(O)cc12", "pEC50": 5.29},
      {"compound": "Cc1cc(C)nc(Nc2ncc(O)n2-c2cccc(C(F)(F)F)c2)n1", "pEC50": "< 4.82"},
      {"compound": "Cc1ccc(C)c(NCC(O)Cn2c3ccccc3c3ccccc32)c1", "note": "(centres undefined)", "pEC50": "< 4.82"},
      {"compound": "COc1cc(CNn2nnnc2N)cc(Cl)c1OC", "pEC50": "< 4.82"},
      {"compound": "O=c1c(Oc2ccccc2)c(C(F)(F)F)oc2c(CN3CCCCC3)c(O)ccc12", "pEC50": "< 4.82"},
      {"compound": "O=c1c2ccccc2nc(SCc2cn3ccccc3n2)n1Cc1ccco1", "pEC50": "< 4.82"},
      {"compound": "COc1cccc(CNc2nnnn2C)c1OCc1ccc(C)cc1", "pEC50": "< 4.82"},
      {"compound": "OC(CNCCOc1ccccc1)Cn1c2ccccc2c2ccccc21", "note": "(centres undefined)", "pEC50": "< 4.82"},
      {"compound": "CCOC(=O)c1cnc2c(OC)cccc2c1Nc1cccc(C(C)=O)c1", "pEC50": 5.55},
      {"compound": "Cc1ccc(Nc2cc(N3CCN(C(=O)c4ccc(C)cc4)CC3)ncn2)cc1", "pEC50": 6.13},
      {"compound": "COc1ccc(C2C(C(=O)OCCOc3ccccc3)=C(C)NC3=C2C(=O)CC(c2ccc(Cl)cc2)C3)cc1", "note": "(centres undefined)", "pEC50": "< 4.82"},
      {"compound": "O=C(Cc1ccccc1)Nc1ccc(-c2nc3cc(NC(=O)Cc4ccccc4)ccc3[nH]2)cc1", "pEC50": "< 4.82"},
      {"compound": "CCN(CC)CCn1c(=N)n(CC(O)COc2ccccc2)c2ccccc21", "note": "(centres undefined)", "pEC50": "< 4.82"},
      {"compound": "COC(=O)C1=C(C)NC2=C(C(=O)CC(c3ccc(Cl)cc3)C2)C1c1cccc(O)c1", "note": "(centres undefined)", "pEC50": "< 4.82"},
      {"compound": "CC(Nc1cc(N2CCN(C(=O)c3ccccc3)CC2)ccc1[N+](=O)[O-])c1ccccc1", "note": "(centres undefined)", "pEC50": 6.18},
      {"compound": "C=CCn1c(=N)n(CC(O)c2cccc(Br)c2)c2ccccc21", "note": "(centres undefined)", "pEC50": 5.66},
      {"compound": "CC(C)N1CCN(Cc2cc(Br)ccc2O)CC1", "pEC50": "< 4.82"},
      {"compound": "CCN(CC)CC(O)Cn1c2ccccc2c2ccccc21", "note": "(centres undefined)", "pEC50": 5.34},
      {"compound": "CCOc1cc(C2CC(=O)NC3=C2C(=O)CC(c2ccc(OC)c(OC)c2)C3)cc(Cl)c1O", "note": "(centres undefined)", "pEC50": 6.68}
    ]}
  ]
}
